The values below come from patent US20160311791A1, “NOVEL TRICYCLIC CALCIUM SENSING RECEPTOR ANTOGONISTS FOR THE TREATMENT OF OSTEOPOSOSIS” (MERCK SHARP & DOHME CORP., priority 2013, published 2016).

pIC50, pKd: −log10 of the molar value.

One assay has as its target T1, calcium sensing receptor (Homo sapiens, UniProt P41180).
T1 sequence (P41180 20-1078): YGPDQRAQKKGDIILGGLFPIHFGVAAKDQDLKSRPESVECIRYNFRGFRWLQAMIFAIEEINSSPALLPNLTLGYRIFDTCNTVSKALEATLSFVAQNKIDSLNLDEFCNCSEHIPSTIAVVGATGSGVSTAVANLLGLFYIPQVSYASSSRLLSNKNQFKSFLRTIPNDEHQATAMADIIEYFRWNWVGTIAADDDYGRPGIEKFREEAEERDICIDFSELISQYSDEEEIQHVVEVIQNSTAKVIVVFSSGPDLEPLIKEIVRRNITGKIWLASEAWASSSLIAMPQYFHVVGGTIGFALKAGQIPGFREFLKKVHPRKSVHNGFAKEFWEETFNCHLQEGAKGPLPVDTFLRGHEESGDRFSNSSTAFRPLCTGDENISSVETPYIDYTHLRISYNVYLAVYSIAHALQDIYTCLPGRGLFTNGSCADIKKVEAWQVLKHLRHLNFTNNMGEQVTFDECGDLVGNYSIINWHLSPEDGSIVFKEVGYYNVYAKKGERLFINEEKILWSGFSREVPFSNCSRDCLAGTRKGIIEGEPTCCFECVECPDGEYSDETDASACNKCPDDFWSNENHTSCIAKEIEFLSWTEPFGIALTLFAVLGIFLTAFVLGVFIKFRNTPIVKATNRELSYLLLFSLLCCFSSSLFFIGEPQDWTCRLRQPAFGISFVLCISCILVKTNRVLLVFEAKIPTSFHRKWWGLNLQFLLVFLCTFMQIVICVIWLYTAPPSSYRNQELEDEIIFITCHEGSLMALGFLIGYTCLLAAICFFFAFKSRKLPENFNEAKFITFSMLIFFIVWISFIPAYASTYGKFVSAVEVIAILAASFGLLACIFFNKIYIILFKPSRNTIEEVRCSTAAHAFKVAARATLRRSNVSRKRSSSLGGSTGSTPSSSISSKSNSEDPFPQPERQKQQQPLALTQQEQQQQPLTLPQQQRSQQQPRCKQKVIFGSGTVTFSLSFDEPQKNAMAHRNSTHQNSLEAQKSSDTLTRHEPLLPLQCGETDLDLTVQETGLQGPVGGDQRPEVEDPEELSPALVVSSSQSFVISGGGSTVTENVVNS
As to the kind of experiment: Calcium sensing receptor antagonist activity (test not specified).

Assay [1] concerns the target T2, human CaSR (Homo sapiens, UniProt P41180).
T2 sequence (P41180 20-1078): T1 sequence (P41180 20-1078)
As to the kind of experiment: CaSR binding assay (radioligand, HEK293 membranes). The arrangement: expressed in transfected cells; host or cells: HEK293 cell membranes. The note with it: radio-labeled compound used as ligand; read-out: apparent Kd. The protocol:
Procedures for CaSR Binding Assay
Membrane preparations from HEK293 cells expressing the human CaSR were generated. The cells were cultured and then washed twice with 1×PBS. The cells were dissociated by adding 4 ml pre-warmed 0.25% Trypsin-EDTA, and by incubating the flask at RT for 3 minutes. 10 ml media was dispensed over the cell layer surface, and the cells were harvested into a centrifuge tube. The cells were centrifuged at 200×g for 10 minutes. The cell pellet was suspended in 30 ml of membrane preparation buffer and then homogenized on ice twice at 16000 rpm for 10 seconds. Following homogenization, the membrane was collected by centrifuge at 40000×g for 30 minutes at 4° C., washed twice with 30 ml membrane preparation buffer, and centrifuged again at 40000×g for 10 minutes. The membrane pellet was suspended in 30 ml membrane preparation buffer (50 mM Tris, pH7.0, 10 mM MgCl, Proteinase inhibitor (Roche, REF 04693116001), and then homogenized on ice once at 16000 rpm for 10 seconds. The total protein concentration was measured using a BCA kit. The membrane protein concentration was adjusted to 2.4 mg/ml and then diluted with binding buffer (10 mM HEPES, pH7.4, 130 mM NaCl, 0.4 mM CaCl2, 5 mM MgCl2, 1 mM EGTA, 10 mM glucose, 0.1% BSA) to 0.33 μg/μl. The final amount in the binding assay was 20 μg/well. Test compound was serially diluted manually by using BIOHIT multi-channel pipettor in 100% DMSO (10 point, 3-fold dilution of each compound from 5.0 μM in 100% DMSO). 4 μl of serially diluted compound was manually transferred into a second assay microplate that contained 196 μl of binding assay buffer to create the intermediate dilution plate. For background, 20 μl of assay buffer was added to each control well. […] The binding reaction used a 100 μl reaction volume consisting of 10 μl of test compound, 30 μl of diluted radio-labelled compound, and 60 μl of membrane solution (0.33 μg/μl). The reaction mixture was incubated at room temperature for one hour. The Grade GF/C filter plates were presoaked in 0.3% PEI (protect from light) for 60 minutes at room temperature. The plate was then washed three times with ice-cold wash buffer (25 mM Tris-HCl, PH7.4, 130 mM NaCl, 5 mM MgCl2, 0.4 mM CaCl2, 0.1% BSA) prior to filtration of the binding samples. The binding reaction was terminated by rapid filtration of 100 μl binding mixture through the GF/C plate. Plates were then washed 6 times with ice-cold wash buffer. Filter plates were dried with a hair dryer for 20 minutes. 60 μl/well MICROSCINT 20 (a cocktail for microplates) was added to the bottom of sealed filters, then the filters were sealed at the top with tape. Bound radioactivity was counted in a TOPCOUNT scintillation counter. Exemplary compounds bind in the 1-500 nM range.

Assay [2] concerns the target T2, human CaSR. Description: CaSR FLIPR assay (calcilytic activity). The assay is classed as cell-based. The arrangement: expressed in transfected cells. The note with it: HEK293 cells stably expressing human recombinant CaSR; 1 mM CaCl2 agonist; Tables 1-24; read-out: FLIPR ASSAY IC50. In a few lines: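 Calcium flux in HEK293 cells stably expressing human CaSR, loaded with Calcium 4 dye for 1 h at 37° C, read on FLIPR. Compounds in 0.5% DMSO (10-point, 3-fold series) added first, then CaCl2 at 1 mM final. Buffer: 20 mM HEPES pH 7.4, HBSS, 0.4 mM CaCl2, Mg salts.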

For the molecule `CC(C)(CC1Cc2ccccc2C1)NC[C@@H](O)COc1cc(-c2ccc(C(=O)O)cc2)ccc1F` [Example 25, (R)-3′-(3-((1-(2,3-dihydro-1H-inden-2-yl)-2-methylpropan-2-yl)amino)-2-hydroxypropoxy)-4′-fluoro-[1,1′-biphenyl]-4-carboxylic acid], the “calcium sensing receptor antagonist activity” value on calcium sensing receptor was “shows calcium sensing receptor antagonist activity”. Further, the pKd on human CaSR [1] was 6.40.

On to `C[C@@H](OC[C@H](O)CNC(C)(C)Cc1ccc2sccc2c1)c1cccc2c1[C@@H]1[C@H](O2)[C@H]1C(=O)O` [Example 5-9], for which the pIC50 at human CaSR [2] was 7.64.

For the molecule `Cc1cc(Cl)c([C@@H](C)OC[C@H](O)CNC(C)(C)Cc2ccc3sccc3c2)c2c1O[C@@H]1[C@@H](C(=O)O)[C@H]21` [Example 16-3], the pIC50 at human CaSR [2] was 7.85.

As to `Cc1ccc([C@@H](C)OC[C@H](O)CNC(C)(C)Cc2ccc3occc3c2)c2c1O[C@@H]1[C@@H](C(=O)O)[C@H]21` [Example 8-7], the pIC50 on human CaSR [2] was 7.38.

For the molecule `C[C@@H](OC[C@H](O)CNC(C)(C)Cc1ccc2ccccc2c1)c1cccc2c1[C@H]1[C@@H](C2)[C@@H]1C(=O)O` [Example 13-6], the pIC50 at human CaSR [2] was 5.31.

For the molecule `C[C@@H](OC[C@H](O)CNC(C)(C)Cc1ccc(Cl)c(F)c1)c1cccc2c1[C@@H]1[C@H](O2)[C@H]1C(=O)O` [Example 5-2], on human CaSR [2], the negative logarithm of the IC50 (pIC50) was 7.49.

In the case of `CC(OC[C@H](O)CNC(C)(C)Cc1ccc2ccccc2c1)c1cccc2c1C1C(S2)C1C(=O)O` (some centres unmarked) [Example 23-1], the pIC50 on human CaSR [2] is 7.38.

For `CSc1ccc(CC(C)(C)NC[C@@H](O)CO[C@H](C)c2cccc3c2[C@@H]2[C@H](O3)[C@H]2C(=O)O)cc1` [Example 5-13], the negative logarithm of the IC50 (pIC50) at human CaSR [2] was 7.14.

Take `Cc1ccc([C@@H](C)OC[C@H](O)CNC(C)(C)CSc2ccc(F)cc2)c2c1O[C@@H]1[C@@H](C(=O)O)[C@H]21` [Example 8-32]: the pIC50 at human CaSR [2] is 5.85.

Regarding `C[C@@H](OC[C@H](O)CNC(C)(C)CN1CCc2ccccc2C1)c1cccc2c1O[C@H]1[C@H](C(=O)O)[C@@H]21` [Example 2-8], at human CaSR [2], the negative-log IC50 (pIC50) is 5.13.

For the molecule `COc1ccc(CC(C)(C)NC[C@@H](O)CO[C@H](C)c2ccc(C)c3c2[C@@H]2[C@H](O3)[C@H]2C(=O)O)c(Cl)c1` [Example 8-28], the negative-log IC50 (pIC50) at human CaSR [2] was 7.66.

For `COc1ccc(CC(C)(C)NC[C@@H](O)CO[C@H](C)c2c(Cl)cc(C)c3c2[C@@H]2[C@H](O3)[C@H]2C(=O)O)c(F)c1` [Example 16-5], the pIC50 on human CaSR [2] is 7.62.

Turning to `C[C@@H](OC[C@H](O)CNC(C)(C)Cc1ccc2c(c1)OCCO2)c1cccc2c1[C@@H]1[C@H](O2)[C@H]1C(=O)O` [Example 5-10], the pIC50 at human CaSR [2] was 6.82.

As to `Cc1ccc([C@@H](C)OC[C@H](O)CNC(C)(C)Cc2ccc3c(c2)CCS3)c2c1O[C@@H]1[C@@H](C(=O)O)[C@H]21` [Example 8-26], the pIC50 on human CaSR [2] was 7.68.

`Cc1ccc(C(C)OC[C@H](O)CNC(C)(C)Cc2ccc3ccccc3c2)c2c1OC(C)(C)C1C(C(=O)O)C21` (some centres unmarked) [Example 24-1]: the pIC50 on human CaSR [2] is 6.97.

Regarding `C[C@@H](OC[C@H](O)CNC(C)(C)Cc1ccc2sccc2c1)c1cccc2c1[C@@H]1[C@H](C2)[C@H]1C(=O)O` [Example 13-4], the pIC50 on human CaSR [2] was 7.44.
